Source: the NIST ThermoML archive (doi:10.1016/j.jct.2012.11.032)

Experiment: xn = mol fraction of the nth substance listed
Conditions: 101 kPa, Liquid; for speed of sound: Sing-around technique in a fixed-path interferometer; for mass density: Vibrating tube method

CCCCCCCCCCn1cc[n+](C)c1.[Cl-] [1-decyl-3-methylimidazolium chloride] + O
Conditions	mass density [kg/m3]	speed of sound [m/s]
283 K, x1 = 0.000105	999.733	1449.9
283 K, x1 = 0.000185	999.76	1451.1
283 K, x1 = 0.000277	999.776	1452.4
283 K, x1 = 0.000377	999.82	1453.9
283 K, x1 = 0.000452	999.839	1454.6
283 K, x1 = 0.000546	999.878	1455.8
283 K, x1 = 0.000728	999.945	1458.5
283 K, x1 = 0.000836	999.997	1460.3
283 K, x1 = 0.001002	1000.05	1462.6
283 K, x1 = 0.001099	1000.05	1463.7
283 K, x1 = 0.00118	1000.1	1464.7
283 K, x1 = 0.001259	1000.11	1465
283 K, x1 = 0.001351	1000.13	1465.9
283 K, x1 = 0.001452	1000.14	1466.5
283 K, x1 = 0.001539	1000.14	1467.1
283 K, x1 = 0.001631	1000.14	1467.9
283 K, x1 = 0.001869	1000.13	1468.9
283 K, x1 = 0.001988	1000.13	1469.3
288 K, x1 = 0.000105	999.142	1467.8
288 K, x1 = 0.000185	999.164	1468.9
288 K, x1 = 0.000277	999.176	1470.2
288 K, x1 = 0.000377	999.206	1471.5
288 K, x1 = 0.000452	999.216	1472.4
288 K, x1 = 0.000546	999.247	1473.5
288 K, x1 = 0.000728	999.3	1476
288 K, x1 = 0.000836	999.347	1477.5
288 K, x1 = 0.001002	999.38	1479.5
288 K, x1 = 0.001099	999.375	1480.5
288 K, x1 = 0.00118	999.412	1481.3
288 K, x1 = 0.001259	999.417	1481.7
288 K, x1 = 0.001351	999.423	1482.5
288 K, x1 = 0.001452	999.42	1483
288 K, x1 = 0.001539	999.421	1483.4
288 K, x1 = 0.001631	999.412	1483.9
288 K, x1 = 0.001869	999.393	1484.8
288 K, x1 = 0.001988	999.38	1485.2
293 K, x1 = 0.000105	998.25	1483.9
293 K, x1 = 0.000185	998.269	1484.9
293 K, x1 = 0.000277	998.279	1486
293 K, x1 = 0.000377	998.297	1487.2
293 K, x1 = 0.000452	998.301	1488.1
293 K, x1 = 0.000546	998.325	1489.2
293 K, x1 = 0.000728	998.361	1491.4
293 K, x1 = 0.000836	998.402	1492.8
293 K, x1 = 0.001002	998.424	1494.6
293 K, x1 = 0.001099	998.408	1495.4
293 K, x1 = 0.00118	998.437	1496.1
293 K, x1 = 0.001259	998.436	1496.5
293 K, x1 = 0.001351	998.434	1497.1
293 K, x1 = 0.001452	998.423	1497.6
293 K, x1 = 0.001539	998.415	1497.9
293 K, x1 = 0.001631	998.403	1498.3
293 K, x1 = 0.001869	998.372	1499
293 K, x1 = 0.001988	998.354	1499.4
298 K, x1 = 0.000105	997.096	1498
298 K, x1 = 0.000185	997.108	1498.9
298 K, x1 = 0.000277	997.114	1500
298 K, x1 = 0.000377	997.124	1501.1
298 K, x1 = 0.000452	997.122	1501.8
298 K, x1 = 0.000546	997.141	1502.8
298 K, x1 = 0.000728	997.166	1504.9
298 K, x1 = 0.000836	997.199	1506.1
298 K, x1 = 0.001002	997.205	1507.7
298 K, x1 = 0.001099	997.182	1508.4
298 K, x1 = 0.00118	997.205	1509
298 K, x1 = 0.001259	997.199	1509.4
298 K, x1 = 0.001351	997.192	1509.9
298 K, x1 = 0.001452	997.175	1510.3
298 K, x1 = 0.001539	997.164	1510.6
298 K, x1 = 0.001631	997.146	1510.9
298 K, x1 = 0.001869	997.078	1511.5
298 K, x1 = 0.001988	997.079	1511.8
303 K, x1 = 0.000105	995.704	1510.3
303 K, x1 = 0.000185	995.706	1511.1
303 K, x1 = 0.000277	995.707	1512.1
303 K, x1 = 0.000377	995.711	1513.1
303 K, x1 = 0.000452	995.705	1513.8
303 K, x1 = 0.000546	995.718	1514.7
303 K, x1 = 0.000728	995.732	1516.6
303 K, x1 = 0.000836	995.759	1517.7
303 K, x1 = 0.001002	995.75	1519.2
303 K, x1 = 0.001099	995.72	1519.7
303 K, x1 = 0.00118	995.739	1520.3
303 K, x1 = 0.001259	995.728	1520.6
303 K, x1 = 0.001351	995.715	1521
303 K, x1 = 0.001452	995.694	1521.5
303 K, x1 = 0.001539	995.683	1521.6
303 K, x1 = 0.001631	995.659	1521.9
303 K, x1 = 0.001869	995.549	1522.4
303 K, x1 = 0.001988	995.574	1522.6
308 K, x1 = 0.000105	994.091	1520.9
308 K, x1 = 0.000185	994.084	1521.6
308 K, x1 = 0.000277	994.08	1522.5
308 K, x1 = 0.000377	994.079	1523.4
308 K, x1 = 0.000452	994.068	1524.1
308 K, x1 = 0.000546	994.074	1524.9
308 K, x1 = 0.000728	994.082	1526.7
308 K, x1 = 0.000836	994.1	1527.7
308 K, x1 = 0.001002	994.083	1528.9
308 K, x1 = 0.001099	994.044	1529.4
308 K, x1 = 0.00118	994.057	1529.9
308 K, x1 = 0.001259	994.044	1530.2
308 K, x1 = 0.001351	994.028	1530.5
308 K, x1 = 0.001452	994.006	1531
308 K, x1 = 0.001539	993.985	1531.1
308 K, x1 = 0.001631	993.962	1531.3
308 K, x1 = 0.001869	993.807	1531.7
308 K, x1 = 0.001988	993.859	1531.9
313 K, x1 = 0.000105	992.269	1529.9
313 K, x1 = 0.000185	992.257	1530.5
313 K, x1 = 0.000277	992.252	1531.4
313 K, x1 = 0.000377	992.242	1532.2
313 K, x1 = 0.000452	992.229	1532.8
313 K, x1 = 0.000546	992.227	1533.5
313 K, x1 = 0.000728	992.229	1535.1
313 K, x1 = 0.000836	992.239	1536
313 K, x1 = 0.001002	992.214	1537.2
313 K, x1 = 0.001099	992.17	1537.6
313 K, x1 = 0.00118	992.176	1538
313 K, x1 = 0.001259	992.167	1538.3
313 K, x1 = 0.001351	992.142	1538.6
313 K, x1 = 0.001452	992.118	1539
313 K, x1 = 0.001539	992.095	1539
313 K, x1 = 0.001631	992.066	1539.2
313 K, x1 = 0.001869	991.864	1539.5
313 K, x1 = 0.001988	991.947	1539.7
